Among the data in ChEMBL document CHEMBL5291721, “A preclinical secondary pharmacology resource illuminates target-adverse drug reaction associations of marketed drugs” (Nat Commun, 2023) are AC50 values, retold here.

Test [1] concerns the target T1, B2 bradykinin receptor (Homo sapiens, UniProt P30411).
T1 sequence (P30411 whole entry): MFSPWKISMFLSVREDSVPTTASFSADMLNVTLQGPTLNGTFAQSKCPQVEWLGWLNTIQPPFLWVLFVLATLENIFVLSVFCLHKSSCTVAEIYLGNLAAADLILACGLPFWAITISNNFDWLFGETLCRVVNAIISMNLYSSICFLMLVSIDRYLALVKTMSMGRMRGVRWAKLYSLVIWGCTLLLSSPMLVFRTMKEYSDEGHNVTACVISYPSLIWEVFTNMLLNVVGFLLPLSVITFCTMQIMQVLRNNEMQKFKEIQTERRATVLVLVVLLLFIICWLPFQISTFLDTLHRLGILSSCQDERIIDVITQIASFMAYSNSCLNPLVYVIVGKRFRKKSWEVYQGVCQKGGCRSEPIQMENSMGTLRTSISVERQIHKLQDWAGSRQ

For test [2], the target named is Delta-type opioid receptor (Homo sapiens, UniProt P41143).
The target in test [3] is Vasopressin V2 receptor (Homo sapiens, UniProt P30518).
Test [4] deals with Growth hormone secretagogue receptor type 1 (Homo sapiens, UniProt Q92847).
The target in test [5] is D(3) dopamine receptor (Homo sapiens, UniProt P35462).
For test [6], the target named is Motilin receptor (Homo sapiens, UniProt O43193).
The target in test [7] is Adenosine receptor A2a (Homo sapiens, UniProt P29274).
Test [8] concerns the target T2, Neuropeptide Y receptor type 1 (Homo sapiens, UniProt P25929).
T2 sequence (P25929 whole entry): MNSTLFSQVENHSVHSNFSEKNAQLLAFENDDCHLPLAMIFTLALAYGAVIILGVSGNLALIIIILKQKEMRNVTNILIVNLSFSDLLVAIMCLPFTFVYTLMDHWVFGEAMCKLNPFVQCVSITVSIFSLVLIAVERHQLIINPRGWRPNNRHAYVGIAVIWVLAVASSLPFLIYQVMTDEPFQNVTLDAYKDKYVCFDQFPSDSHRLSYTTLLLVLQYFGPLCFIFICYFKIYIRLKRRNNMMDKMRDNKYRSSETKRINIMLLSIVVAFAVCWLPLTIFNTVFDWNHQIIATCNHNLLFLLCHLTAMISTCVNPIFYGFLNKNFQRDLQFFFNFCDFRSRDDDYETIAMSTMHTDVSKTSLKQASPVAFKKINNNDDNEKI
The following applies: read-out: AC50.

Test [9] concerns the target Melanocortin receptor 3 (Homo sapiens, UniProt P41968).
Test [10] concerns the target T3, Amine oxidase [flavin-containing] A (Homo sapiens, UniProt P21397).
T3 sequence (P21397 whole entry): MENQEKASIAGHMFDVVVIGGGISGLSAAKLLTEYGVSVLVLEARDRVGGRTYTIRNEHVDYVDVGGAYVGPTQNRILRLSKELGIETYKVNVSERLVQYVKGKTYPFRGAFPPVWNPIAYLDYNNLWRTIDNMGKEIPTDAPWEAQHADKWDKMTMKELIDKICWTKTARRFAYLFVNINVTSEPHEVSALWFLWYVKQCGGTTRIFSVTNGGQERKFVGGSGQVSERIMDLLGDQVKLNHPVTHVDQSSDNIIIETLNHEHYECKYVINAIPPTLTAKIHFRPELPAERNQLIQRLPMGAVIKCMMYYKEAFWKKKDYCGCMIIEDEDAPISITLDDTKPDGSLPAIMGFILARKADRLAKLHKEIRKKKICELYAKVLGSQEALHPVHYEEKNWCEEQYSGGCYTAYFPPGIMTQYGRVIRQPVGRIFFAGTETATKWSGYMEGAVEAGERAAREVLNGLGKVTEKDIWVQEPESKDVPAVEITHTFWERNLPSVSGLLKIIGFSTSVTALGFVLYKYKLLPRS
In kind it is functional.

Test [11] concerns the target Voltage-gated inwardly rectifying potassium channel KCNH2 (Homo sapiens, UniProt Q12809). It is filed as functional.
Test [12] deals with Sodium-dependent noradrenaline transporter (Homo sapiens, UniProt P23975).
Test [13] deals with T4, Type-1 angiotensin II receptor (Homo sapiens, UniProt P30556).
T4 sequence (P30556 whole entry): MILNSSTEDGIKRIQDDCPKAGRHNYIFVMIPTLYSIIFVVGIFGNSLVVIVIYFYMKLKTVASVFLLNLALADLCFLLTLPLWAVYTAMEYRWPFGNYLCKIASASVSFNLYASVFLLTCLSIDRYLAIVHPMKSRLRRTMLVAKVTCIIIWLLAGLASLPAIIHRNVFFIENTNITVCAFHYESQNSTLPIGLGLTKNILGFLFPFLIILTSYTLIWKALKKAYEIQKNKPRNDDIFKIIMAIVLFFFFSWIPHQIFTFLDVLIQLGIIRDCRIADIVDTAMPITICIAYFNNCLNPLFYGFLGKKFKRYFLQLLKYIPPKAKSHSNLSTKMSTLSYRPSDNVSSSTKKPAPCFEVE

Test [14] has as its target Neuronal acetylcholine receptor subunit alpha-4 (Homo sapiens, UniProt P43681).
For test [15], the target named is T5, Alpha-2A adrenergic receptor (Homo sapiens, UniProt P08913).
T5 sequence (P08913 whole entry): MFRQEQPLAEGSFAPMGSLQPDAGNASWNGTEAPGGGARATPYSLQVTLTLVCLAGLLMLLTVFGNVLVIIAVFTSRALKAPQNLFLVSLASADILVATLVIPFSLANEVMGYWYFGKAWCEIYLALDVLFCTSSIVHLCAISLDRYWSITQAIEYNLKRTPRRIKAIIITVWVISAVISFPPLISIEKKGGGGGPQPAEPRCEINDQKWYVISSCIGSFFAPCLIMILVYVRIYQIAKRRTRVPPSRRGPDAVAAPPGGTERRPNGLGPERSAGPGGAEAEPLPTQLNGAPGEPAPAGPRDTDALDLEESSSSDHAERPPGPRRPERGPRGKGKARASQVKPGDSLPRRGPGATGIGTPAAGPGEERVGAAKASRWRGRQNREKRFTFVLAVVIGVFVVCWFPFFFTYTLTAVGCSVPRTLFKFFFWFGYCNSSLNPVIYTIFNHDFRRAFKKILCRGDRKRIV
It is filed as functional, cell-based.
Note: assay procedure not described here.

Chain of Vasopressin V2 receptor (P30518 whole entry): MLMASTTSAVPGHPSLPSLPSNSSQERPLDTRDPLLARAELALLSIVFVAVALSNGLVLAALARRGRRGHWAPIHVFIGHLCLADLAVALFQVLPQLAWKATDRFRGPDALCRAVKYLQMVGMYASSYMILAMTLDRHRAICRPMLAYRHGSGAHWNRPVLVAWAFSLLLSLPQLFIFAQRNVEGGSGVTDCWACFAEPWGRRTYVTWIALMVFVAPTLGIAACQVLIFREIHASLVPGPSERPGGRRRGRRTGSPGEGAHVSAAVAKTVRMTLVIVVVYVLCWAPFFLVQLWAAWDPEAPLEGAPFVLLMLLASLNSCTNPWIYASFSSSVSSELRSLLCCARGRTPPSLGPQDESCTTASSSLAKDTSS
Chain of Sodium-dependent noradrenaline transporter (P23975 whole entry): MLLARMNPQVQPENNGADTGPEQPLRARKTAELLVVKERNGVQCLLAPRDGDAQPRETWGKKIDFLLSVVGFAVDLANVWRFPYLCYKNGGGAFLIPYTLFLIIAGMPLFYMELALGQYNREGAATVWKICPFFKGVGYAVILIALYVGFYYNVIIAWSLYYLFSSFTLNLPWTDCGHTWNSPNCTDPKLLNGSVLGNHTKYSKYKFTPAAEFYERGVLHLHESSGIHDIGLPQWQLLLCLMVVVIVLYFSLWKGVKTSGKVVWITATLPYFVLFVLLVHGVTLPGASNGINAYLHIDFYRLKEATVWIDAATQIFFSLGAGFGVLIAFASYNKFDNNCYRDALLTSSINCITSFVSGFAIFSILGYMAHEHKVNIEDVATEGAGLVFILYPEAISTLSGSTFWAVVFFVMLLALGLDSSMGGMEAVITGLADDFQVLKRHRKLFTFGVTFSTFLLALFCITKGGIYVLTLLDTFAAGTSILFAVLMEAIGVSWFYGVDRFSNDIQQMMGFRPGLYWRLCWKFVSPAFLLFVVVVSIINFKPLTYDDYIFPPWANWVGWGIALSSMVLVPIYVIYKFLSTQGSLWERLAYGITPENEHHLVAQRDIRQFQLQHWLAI
Chain of Adenosine receptor A2a (P29274 whole entry): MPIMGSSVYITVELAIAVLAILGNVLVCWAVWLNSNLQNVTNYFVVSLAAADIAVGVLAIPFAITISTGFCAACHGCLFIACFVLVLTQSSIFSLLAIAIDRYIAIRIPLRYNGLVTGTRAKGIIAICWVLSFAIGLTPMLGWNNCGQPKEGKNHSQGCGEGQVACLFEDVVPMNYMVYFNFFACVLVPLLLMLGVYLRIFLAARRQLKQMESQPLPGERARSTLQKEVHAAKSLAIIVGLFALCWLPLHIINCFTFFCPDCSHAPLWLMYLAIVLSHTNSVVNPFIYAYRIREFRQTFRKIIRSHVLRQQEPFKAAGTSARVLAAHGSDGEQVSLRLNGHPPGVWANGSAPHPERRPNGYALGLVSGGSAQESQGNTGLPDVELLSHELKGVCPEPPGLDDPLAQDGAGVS
Chain of D(3) dopamine receptor (P35462 whole entry): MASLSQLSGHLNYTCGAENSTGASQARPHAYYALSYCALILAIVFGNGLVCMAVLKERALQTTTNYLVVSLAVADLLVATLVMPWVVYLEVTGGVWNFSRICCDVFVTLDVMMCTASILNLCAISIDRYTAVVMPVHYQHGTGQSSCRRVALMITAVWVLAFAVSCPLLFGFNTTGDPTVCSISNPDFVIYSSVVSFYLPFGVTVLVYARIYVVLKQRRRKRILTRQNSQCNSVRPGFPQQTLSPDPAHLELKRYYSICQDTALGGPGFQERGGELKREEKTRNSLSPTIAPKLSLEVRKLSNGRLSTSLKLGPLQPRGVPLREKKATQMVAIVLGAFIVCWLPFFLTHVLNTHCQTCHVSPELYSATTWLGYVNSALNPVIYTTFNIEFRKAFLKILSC
Chain of Voltage-gated inwardly rectifying potassium channel KCNH2 (Q12809 whole entry): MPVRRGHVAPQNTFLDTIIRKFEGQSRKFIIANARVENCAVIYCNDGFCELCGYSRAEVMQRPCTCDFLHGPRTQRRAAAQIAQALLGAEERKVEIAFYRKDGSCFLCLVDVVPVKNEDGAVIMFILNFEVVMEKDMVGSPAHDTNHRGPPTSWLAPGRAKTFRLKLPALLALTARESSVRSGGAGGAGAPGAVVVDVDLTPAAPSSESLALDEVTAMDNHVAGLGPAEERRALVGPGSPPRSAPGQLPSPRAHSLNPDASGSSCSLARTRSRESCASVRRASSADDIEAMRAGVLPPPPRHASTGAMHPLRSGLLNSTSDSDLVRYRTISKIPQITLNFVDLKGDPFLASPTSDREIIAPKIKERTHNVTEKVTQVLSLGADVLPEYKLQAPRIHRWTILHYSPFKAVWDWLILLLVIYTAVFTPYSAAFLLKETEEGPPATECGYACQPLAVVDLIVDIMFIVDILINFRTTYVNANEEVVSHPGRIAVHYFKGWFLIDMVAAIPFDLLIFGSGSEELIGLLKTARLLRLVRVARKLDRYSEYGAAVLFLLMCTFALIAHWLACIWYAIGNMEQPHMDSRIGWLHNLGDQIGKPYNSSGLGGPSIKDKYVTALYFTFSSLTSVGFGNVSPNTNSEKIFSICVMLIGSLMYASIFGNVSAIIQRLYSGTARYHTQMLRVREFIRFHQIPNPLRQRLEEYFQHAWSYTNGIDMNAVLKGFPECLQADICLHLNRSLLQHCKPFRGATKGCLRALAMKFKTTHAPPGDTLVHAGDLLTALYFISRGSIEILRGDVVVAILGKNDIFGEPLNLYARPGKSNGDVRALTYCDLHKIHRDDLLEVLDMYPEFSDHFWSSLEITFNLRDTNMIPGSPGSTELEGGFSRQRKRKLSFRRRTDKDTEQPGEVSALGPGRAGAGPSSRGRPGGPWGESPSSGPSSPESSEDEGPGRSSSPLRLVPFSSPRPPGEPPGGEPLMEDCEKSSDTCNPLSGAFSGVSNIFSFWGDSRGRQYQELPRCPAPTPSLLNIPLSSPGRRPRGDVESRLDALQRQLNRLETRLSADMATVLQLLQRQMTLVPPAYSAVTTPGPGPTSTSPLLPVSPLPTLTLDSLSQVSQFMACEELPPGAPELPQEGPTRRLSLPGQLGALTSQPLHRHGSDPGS
Chain of Neuronal acetylcholine receptor subunit alpha-4 (P43681 whole entry): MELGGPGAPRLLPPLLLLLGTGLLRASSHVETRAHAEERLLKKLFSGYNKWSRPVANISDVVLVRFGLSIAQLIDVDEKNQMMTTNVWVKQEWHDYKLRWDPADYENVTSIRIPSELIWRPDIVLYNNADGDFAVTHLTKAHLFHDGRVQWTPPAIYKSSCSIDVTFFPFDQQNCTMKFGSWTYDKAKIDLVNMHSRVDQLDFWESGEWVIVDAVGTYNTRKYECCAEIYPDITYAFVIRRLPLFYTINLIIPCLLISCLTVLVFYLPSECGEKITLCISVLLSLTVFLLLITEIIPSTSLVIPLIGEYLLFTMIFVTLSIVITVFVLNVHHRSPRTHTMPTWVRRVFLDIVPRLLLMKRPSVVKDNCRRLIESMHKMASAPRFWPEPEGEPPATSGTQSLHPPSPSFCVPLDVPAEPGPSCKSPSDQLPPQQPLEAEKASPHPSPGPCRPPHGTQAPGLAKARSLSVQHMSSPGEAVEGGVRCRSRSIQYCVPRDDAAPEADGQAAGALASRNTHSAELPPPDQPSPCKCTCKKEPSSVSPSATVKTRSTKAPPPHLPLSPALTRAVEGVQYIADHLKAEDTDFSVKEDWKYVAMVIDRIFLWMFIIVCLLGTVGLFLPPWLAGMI
Chain of Melanocortin receptor 3 (P41968 whole entry): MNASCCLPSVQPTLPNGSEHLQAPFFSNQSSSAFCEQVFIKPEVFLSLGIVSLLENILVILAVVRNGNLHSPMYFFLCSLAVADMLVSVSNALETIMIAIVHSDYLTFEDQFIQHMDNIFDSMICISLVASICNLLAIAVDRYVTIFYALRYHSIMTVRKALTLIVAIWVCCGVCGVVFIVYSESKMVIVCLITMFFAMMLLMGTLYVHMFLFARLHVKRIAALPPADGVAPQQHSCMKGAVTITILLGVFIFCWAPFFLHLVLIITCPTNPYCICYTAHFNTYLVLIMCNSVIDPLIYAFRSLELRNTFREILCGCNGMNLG
Chain of Motilin receptor (O43193 whole entry): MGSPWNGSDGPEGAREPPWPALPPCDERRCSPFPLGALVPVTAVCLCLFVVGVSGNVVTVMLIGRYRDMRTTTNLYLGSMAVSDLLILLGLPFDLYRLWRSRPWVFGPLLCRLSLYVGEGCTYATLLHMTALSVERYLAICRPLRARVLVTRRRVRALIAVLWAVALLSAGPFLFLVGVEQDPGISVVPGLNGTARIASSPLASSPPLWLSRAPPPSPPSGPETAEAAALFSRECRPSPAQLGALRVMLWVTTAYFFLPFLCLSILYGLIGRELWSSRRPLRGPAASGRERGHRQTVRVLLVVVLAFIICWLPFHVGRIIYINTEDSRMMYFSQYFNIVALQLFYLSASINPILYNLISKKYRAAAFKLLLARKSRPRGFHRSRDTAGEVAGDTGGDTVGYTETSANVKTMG
Chain of Delta-type opioid receptor (P41143 whole entry): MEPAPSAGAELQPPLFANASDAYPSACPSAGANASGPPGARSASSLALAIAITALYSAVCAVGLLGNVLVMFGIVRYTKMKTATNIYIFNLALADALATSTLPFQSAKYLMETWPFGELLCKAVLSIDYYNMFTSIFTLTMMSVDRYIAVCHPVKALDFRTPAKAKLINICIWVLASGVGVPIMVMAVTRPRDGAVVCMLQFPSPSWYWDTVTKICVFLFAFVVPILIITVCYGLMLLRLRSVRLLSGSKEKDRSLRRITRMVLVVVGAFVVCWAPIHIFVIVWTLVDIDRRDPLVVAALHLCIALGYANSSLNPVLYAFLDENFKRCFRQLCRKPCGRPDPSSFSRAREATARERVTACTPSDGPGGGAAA

One may read the AC50 as the concentration at which the activity in the assay is half-maximal. For the compound `CCC[C@H](NC(=O)[C@@H]1[C@H]2CCC[C@H]2CN1C(=O)[C@@H](NC(=O)[C@@H](NC(=O)c1cnccn1)C1CCCCC1)C(C)(C)C)C(=O)C(=O)NC1CC1`, the AC50 in test [1] is greater than 30 µM; in test [2], greater than 30 µM; in [3] it was greater than 30 µM; in test [4] it was greater than 30 µM; in test [5] it was greater than 30 µM; in test [6], greater than 10 µM. Also, the AC50 in test [7] was greater than 30 µM; in test [8], greater than 30 µM; in test [9], greater than 30 µM; in test [10], greater than 10 µM; in [11], greater than 30 µM; in test [12] it was greater than 10 µM. Further, the AC50 in test [13] is greater than 30 µM; in [14] it was greater than 10 µM.

As to `CC(C)COCC(CN(Cc1ccccc1)c1ccccc1)N1CCCC1` (stereo not given) [BEPRIDIL], the AC50 is greater than 30 µM in test [1]; greater than 30 µM in [2]; greater than 30 µM in [3]; greater than 30 µM in test [15]; 22.1 µM in test [4]; 2.6 µM in test [5]. In addition, the AC50 was 20.2 µM in test [6]; greater than 30 µM in test [7]; greater than 30 µM in [8]; 12.5 µM in test [9]; greater than 30 µM in test [10]; 21 µM in test [12]. Further, the AC50 in [13] was greater than 30 µM.

Consider `COc1cc(N)c(Cl)cc1C(=O)NC1CCN(Cc2ccccc2)CC1` [CLEBOPRIDE], for which the AC50 in test [1], in test [2], in [3], in [15], in test [4] and in test [6] was greater than 30 µM in each case. Further, the AC50 in test [7] is greater than 30 µM; in test [8] it was greater than 30 µM; in test [9], greater than 30 µM; in test [10], greater than 30 µM; in [11] it was 1.4 µM; in test [12], 15 µM. For the same compound, the AC50 in test [13] is greater than 30 µM; in test [14], 24 µM.

`Cc1cnc(C(=O)NCCc2ccc(S(=O)(=O)NC(=O)NC3CCCCC3)cc2)cn1` [GLIPIZIDE]: the AC50 in [1] was greater than 30 µM; in [2], greater than 10 µM; in test [3], greater than 30 µM; in [15], greater than 10 µM; in test [4] it was greater than 30 µM; in [6], greater than 10 µM. The AC50 in [7] was greater than 30 µM; in test [8] it was greater than 30 µM; in test [9], greater than 30 µM; in test [10], greater than 10 µM; in test [13], greater than 30 µM; in test [14] it was greater than 10 µM.

As for `CC(C)NCC(O)c1ccc(O)c(O)c1` (stereo not given) [ISOPROTERENOL], the AC50 in test [1] is greater than 30 µM; in test [2] it was greater than 10 µM; in test [3], greater than 30 µM; in test [4], greater than 30 µM; in test [5], greater than 30 µM; in test [6], greater than 10 µM. The AC50 is greater than 30 µM in test [7]; greater than 30 µM in test [8]; greater than 30 µM in test [9]; greater than 10 µM in [10]; greater than 30 µM in test [11]; greater than 30 µM in test [12]. Further, the AC50 in test [13] and in test [14] was greater than 30 µM throughout.

Take `CN1CCN(C2=Nc3ccccc3Oc3ccc(Cl)cc32)CC1` [LOXAPINE]: the AC50 was greater than 30 µM in test [1]; 8.51 µM in test [2]; greater than 30 µM in [3]; greater than 30 µM in test [4]; 0.032 µM in [5]; greater than 10 µM in [6]. Also, the AC50 in test [7] was greater than 30 µM; in test [8] it was greater than 30 µM; in test [9], greater than 30 µM; in test [10], greater than 10 µM; in [11] it was 10.6 µM; in test [12], 1.53 µM. Besides, the AC50 in [13] was greater than 30 µM; in [14], greater than 10 µM.

On to `CN(C)CCCNc1c2ccccc2nc2cccc([N+](=O)[O-])c12` [NITRACRINE], for which the AC50 in test [1] was greater than 30 µM; in test [3], greater than 30 µM; in [15], greater than 30 µM; in [4], greater than 30 µM; in test [5], 9.8 µM; in [6] it was greater than 30 µM. Besides, the AC50 is 17 µM in test [7]; greater than 30 µM in test [8]; greater than 30 µM in test [9]; 19 µM in test [10]; 0.46 µM in [11]; greater than 30 µM in [12]. Moreover, the AC50 in test [13] and in test [14] was greater than 30 µM each time.

Take `Clc1ccc(C(Cn2ccnc2)OCc2ccsc2Cl)c(Cl)c1` (stereo not given) [TIOCONAZOLE]: the AC50 was greater than 3 µM in [1]; 3.2 µM in test [2]; greater than 30 µM in test [3]; greater than 30 µM in test [15]; 8.5 µM in [4]; 24 µM in test [5]. For the same compound, the AC50 is greater than 30 µM in test [6]; greater than 30 µM in test [7]; greater than 30 µM in [8]; greater than 30 µM in test [9]; greater than 30 µM in test [10]; 20.7 µM in test [12]. Besides, the AC50 in [13] and in [14] was greater than 30 µM each time.

Consider `Cc1cccc(N2CC(CO)OC2=O)c1` (stereo not given) [TOLOXATONE], for which the concentration at half-maximal activity (AC50) in test [1], in test [3], in [15], in test [4], in test [5] and in test [6] was greater than 30 µM each time. Moreover, the AC50 in test [7], in test [8], in test [9], in [11], in [13] and in [14] was greater than 30 µM in each case.

Consider `CCOC(=O)C1=C[C@]2(CC)CCCN3CCc4c(n1c1ccccc41)[C@@H]32` [VINPOCETINE], for which the AC50 in [1] is greater than 30 µM; in test [2], greater than 30 µM; in test [3], greater than 30 µM; in test [15] it was greater than 30 µM; in [4], greater than 30 µM; in test [5], 23 µM. For the same compound, the AC50 in test [6], in [7], in test [8], in [9], in [10] and in test [12] was greater than 30 µM each time. Moreover, the AC50 in [13] and in [14] was greater than 30 µM each time.
